The target in data set [1] is ATR (Homo sapiens, UniProt Q13535). Conditions: reported (Veuger 2003; Willmore 2004); cited from earlier work.
In data set [2] the test system is H2AX Ser139 phosphorylation. Briefly: Western analysis of H2AX phosphorylation in Pa-4 and Pa-4/HMGA2 cells. It counts as cell-based. To be noted: 4 mM caffeine or 10 μM NU7026 1 hour, then with 1 μM Dox 2 hours. How it is done: To ascertain whether HMGA2 effects Dox-induced ATM signaling activation, phosphorylation of ATM Ser1981 and H2AX Ser139 was assayed in the presence and absence of Dox (2 μM in ATM assays, 1 μM in H2AX assays). At various timepoints after Dox treatment, cell lysates were removed and subjected to Western analyses using monoclonal anti-phospho-ATM antibodies (Ser1981), polyclonal anti-ATM antibodies (Santa Cruz Biotechnology, Santa Cruz, Calif.), monoclonal anti-phospho-H2AX antibodies ([…]) (Upstate Cell Signaling), or anti-H2AX antibodies. Control Western analyses were performed using monoclonal anti-actin antibodies. […] HeLa and HeLa/HMGA2 cells
(§1) NU7026 (Calbiochem, San Diego, Calif.) was dissolved in DMSO at 5 mM and stored at −20° C. […] Cell lysates were removed and subjected to Western analyses using monoclonal anti-phospho-H2AX (Ser 139) antibodies. Control Western analyses were performed using monoclonal anti-actin antibodies.

Data set [3] has as its target DNA-PK (Homo sapiens, UniProt P78527). To be noted: reported (Veuger 2003; Willmore 2004); cited from earlier work.
The test system of data set [4] is H2AX phosphorylation. The data set is described as follows: Western analysis of H2AX phosphorylation in HS578T and HCC1419 cells. It is filed as cell-based. How it is done: as §1
Experiments were repeated using HS578T and HCC1419 cells treated with 2 μM rather than 1 μM Dox.

Data set [5] addresses ATM (Homo sapiens, UniProt Q13315). To be noted: reported (Veuger 2003; Willmore 2004); cited from earlier work.
Data set [6] has as its system HeLa and HeLa/HMGA2 cells. The data set is described as follows: MTT cell viability assay. It counts as cell-based. To be noted: increasing concentrations, 72 hours. The text has this:
HS578T, HCC1419, and CHO cells
(Tetrazolium assays rely on reduction of a dye to a coloured formazan, in cell work by metabolically active cells.)

Data set [7] has as its system Pa-4/HMGA2 cells. The data set is described as follows: FACS analysis after caffeine and Dox (G2/M, sub-G1). It counts as cell-based. How it is done: Pa-4 and Pa-4/HMGA2 cells were seeded at 50-80% confluency in 35 mm dishes and serum starved overnight to synchronize cell cycle. […] Following treatment, cells were fixed in 70% ethanol overnight, stained with 20 μg/ml propidium iodide, and subjected to FACS analysis.
Apoptosis was quantified by assessing sub-G1 cell populations.
In general terms: A flow cytometer gives signals particle by particle.

Data set [8] concerns Pa-4 cells. To be noted: 4 mM caffeine 1 hour, then 1 μM Dox and 4 mM caffeine 48 hours.
Data set [9] deals with Pa-4 and Pa-4/HMGA2 cells. Briefly: MTT cell viability assay. It is filed as cell-based. Conditions: Dox 0-7 μM or irinotecan 0-50 μM.
Data set [10] addresses Ku80 (80-kDa subunit of the DNA-PK holoenzyme), endogenous in HeLa and HeLa/HMGA2 cells (UniProt P13010). Briefly: co-immunoprecipitation with anti-HA antibody from transiently transfected HeLa cells; reference set to 100%.
Data set [11] shares this target. Briefly: co-immunoprecipitation with anti-HA antibody from transiently transfected HeLa cells, Western for Ku80, quantitated and normalized.
For data set [12], the system named is HeLa cells. Briefly: MTT viability of Dox-treated HeLa cells transfected with HMGA2 constructs. It is filed as cell-based. Conditions: transient transfection, Dox for 72 hours. The procedure: FIG. 19: Correlation between HMGA2 binding of Ku80 and chemosensitization towards Dox. HeLa cells were transfected with individual HMGA2 wild type and engineered constructs and allowed to recover overnight prior to reseeding for cell viability assay. Cells were treated with Dox for 72 hours and followed by MTT assays. ** denotes p<0.01.
To elucidate the relevance of HMGA2 complex formation with Ku80/Ku70, the viability of Dox-treated HeLa cells transfected with HMGA2 or its engineered mutants was examined. […] The augmented resistance to Dox, relative to that of vector-transfected HeLa cells, by HMGA2(Δ83-109) and HMGA2(4P/A) mutants may be due to protein-protein interactions arising from the remaining portion of HMGA2.

Data set [13] addresses T1, Ku80 (Homo sapiens, UniProt P13010).
T1 construct: Co-immunoprecipitation assays were performed following transient transfection of HeLa cells with these constructs; endogenous in cells; host or cells: HeLa, transiently transfected with HA-HMGA2 constructs
Briefly: Co-immunoprecipitation of HMGA2 constructs with Ku80 in transfected HeLa cells. It counts as cell-based. Conditions: transient transfection of HeLa cells. The text has this:
FIG. 18: Role of protein-protein and protein-DNA interactions in the HMGA/Ku80/Ku70 interaction. Individual wild type and engineered HMGA2 expression constructs was transfected into HeLa cells. The transfected cells were allowed to recover overnight in fresh medium prior to immunoprecipitation with an anti-HA antibody. Quantitation was done with BioRad Quantity One volume report program. After normalization with transfection efficiency and the expression level of HMGA2 and its mutant, percentage of Ku80/HMGA2 interaction is calculated by designating immunoprecipitated Ku80 with wild type HMGA2 as 100%.
To determine whether HMGA2 directly interacts with either subunit of the DNA-PK complex to dysregulate DNA-PK activation, co-immunoprecipitation assays were conducted using an anti-Ku70 antibody in HeLa and HeLa/HMGA2 cells. Cells were lysed for one hour in RIPA buffer (PBS, 1% NP40, 0.5% sodium deoxycholate, 0.1% SDS) supplemented with PMSF, aprotinin, and sodium orthovanadate immediately before use. The cell lysates were centrifuged at 10,000 rpm for 10 minutes and supernatants were collected. Protein concentrations were determined using Bradford protein assay. […] Samples were then analyzed by Western analyses. […]

Data set [14] deals with HeLa, HeLa/HMGA2, HeLa/HMGA2(2K/R) cells. The data set is described as follows: MTT cell viability assay. To be noted: stable expression in HeLa cells, 72 hours. It is filed as cell-based. The procedure:
FIG. 14: Association of HMGA2-dependent chemosensitization with HMGA2 SUMOylation. HeLa, HeLa/HMGA2, HeLa/HMGA2(2K/R) cells were subjected to treatment with increasing concentrations of Dox (upper panel) or cisplatin (lower panel) for 72 hours, as indicated. Cell viabilities were assessed using MTT assays. * denotes p<0.05; ** denotes p<0.01.
HMGA2 is a SUMOylation target (Cao, X. and Ann, D. K., unpublished observation). To investigate whether SUMOylation is involved in HMGA2-mediated chemosensitization, an HMGA2 mutant was constructed that carried Lysine to Arginine (Lys→Arg) point mutations at residues 66 and 67. These residues correspond to the SUMOyalation site (FIG. 13). The construct (HMGA2(2K/R)) was generated using previously described HA-HMGA2/pcDNA3.1 (Zentner 2001) as a template in conjunction with GeneEditor™ in vitro Site-Directed Mutagenesis System (Promega) and the mutagenesis primer set forth in SEQ ID NO:14. Desired mutations were confirmed by DNA sequencing analyses.

Ku80 (80-kDa subunit of the DNA-PK holoenzyme), endogenous in HeLa and HeLa/HMGA2 cells, sequence (P13010 2-732 limits assumed): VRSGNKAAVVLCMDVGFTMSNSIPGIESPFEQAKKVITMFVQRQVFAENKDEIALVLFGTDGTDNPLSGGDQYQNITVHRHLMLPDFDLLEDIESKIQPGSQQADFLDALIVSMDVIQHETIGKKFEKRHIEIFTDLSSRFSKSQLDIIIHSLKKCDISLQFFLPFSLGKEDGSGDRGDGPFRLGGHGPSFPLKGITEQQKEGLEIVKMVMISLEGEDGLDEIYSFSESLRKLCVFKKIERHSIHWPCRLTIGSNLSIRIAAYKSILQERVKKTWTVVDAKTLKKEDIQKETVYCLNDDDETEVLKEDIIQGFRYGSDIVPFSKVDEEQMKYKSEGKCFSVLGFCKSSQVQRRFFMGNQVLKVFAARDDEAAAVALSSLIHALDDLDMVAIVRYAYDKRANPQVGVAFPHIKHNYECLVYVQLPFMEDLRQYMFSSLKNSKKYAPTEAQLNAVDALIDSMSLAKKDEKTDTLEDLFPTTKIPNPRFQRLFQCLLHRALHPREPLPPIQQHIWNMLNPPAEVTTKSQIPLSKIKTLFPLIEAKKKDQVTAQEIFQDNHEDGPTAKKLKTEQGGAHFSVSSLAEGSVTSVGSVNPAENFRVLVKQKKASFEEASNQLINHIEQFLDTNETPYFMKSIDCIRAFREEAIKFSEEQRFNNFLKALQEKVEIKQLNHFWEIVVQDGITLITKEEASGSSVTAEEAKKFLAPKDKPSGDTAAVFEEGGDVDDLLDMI
T1 sequence (P13010 2-732 limits assumed): as above
T1 sequence (P12956 2-609 partner limits assumed): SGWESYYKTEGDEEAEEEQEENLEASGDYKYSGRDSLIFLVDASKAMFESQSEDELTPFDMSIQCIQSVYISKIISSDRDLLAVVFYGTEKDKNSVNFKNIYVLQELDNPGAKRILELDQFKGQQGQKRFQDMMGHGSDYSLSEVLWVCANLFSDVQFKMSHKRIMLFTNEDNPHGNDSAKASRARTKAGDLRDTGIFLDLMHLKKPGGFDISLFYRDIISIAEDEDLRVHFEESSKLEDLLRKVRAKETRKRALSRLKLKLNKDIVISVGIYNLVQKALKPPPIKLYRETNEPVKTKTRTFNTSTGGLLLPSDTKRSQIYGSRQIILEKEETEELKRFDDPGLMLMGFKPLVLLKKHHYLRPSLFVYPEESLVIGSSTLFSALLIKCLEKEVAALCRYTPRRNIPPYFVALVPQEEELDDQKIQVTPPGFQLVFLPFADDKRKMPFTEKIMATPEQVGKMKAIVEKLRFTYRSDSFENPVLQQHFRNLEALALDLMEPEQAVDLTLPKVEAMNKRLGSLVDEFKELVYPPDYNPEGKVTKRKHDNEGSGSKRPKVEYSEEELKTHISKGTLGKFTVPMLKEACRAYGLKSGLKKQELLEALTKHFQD
ATR, sequence (Q13535 whole entry): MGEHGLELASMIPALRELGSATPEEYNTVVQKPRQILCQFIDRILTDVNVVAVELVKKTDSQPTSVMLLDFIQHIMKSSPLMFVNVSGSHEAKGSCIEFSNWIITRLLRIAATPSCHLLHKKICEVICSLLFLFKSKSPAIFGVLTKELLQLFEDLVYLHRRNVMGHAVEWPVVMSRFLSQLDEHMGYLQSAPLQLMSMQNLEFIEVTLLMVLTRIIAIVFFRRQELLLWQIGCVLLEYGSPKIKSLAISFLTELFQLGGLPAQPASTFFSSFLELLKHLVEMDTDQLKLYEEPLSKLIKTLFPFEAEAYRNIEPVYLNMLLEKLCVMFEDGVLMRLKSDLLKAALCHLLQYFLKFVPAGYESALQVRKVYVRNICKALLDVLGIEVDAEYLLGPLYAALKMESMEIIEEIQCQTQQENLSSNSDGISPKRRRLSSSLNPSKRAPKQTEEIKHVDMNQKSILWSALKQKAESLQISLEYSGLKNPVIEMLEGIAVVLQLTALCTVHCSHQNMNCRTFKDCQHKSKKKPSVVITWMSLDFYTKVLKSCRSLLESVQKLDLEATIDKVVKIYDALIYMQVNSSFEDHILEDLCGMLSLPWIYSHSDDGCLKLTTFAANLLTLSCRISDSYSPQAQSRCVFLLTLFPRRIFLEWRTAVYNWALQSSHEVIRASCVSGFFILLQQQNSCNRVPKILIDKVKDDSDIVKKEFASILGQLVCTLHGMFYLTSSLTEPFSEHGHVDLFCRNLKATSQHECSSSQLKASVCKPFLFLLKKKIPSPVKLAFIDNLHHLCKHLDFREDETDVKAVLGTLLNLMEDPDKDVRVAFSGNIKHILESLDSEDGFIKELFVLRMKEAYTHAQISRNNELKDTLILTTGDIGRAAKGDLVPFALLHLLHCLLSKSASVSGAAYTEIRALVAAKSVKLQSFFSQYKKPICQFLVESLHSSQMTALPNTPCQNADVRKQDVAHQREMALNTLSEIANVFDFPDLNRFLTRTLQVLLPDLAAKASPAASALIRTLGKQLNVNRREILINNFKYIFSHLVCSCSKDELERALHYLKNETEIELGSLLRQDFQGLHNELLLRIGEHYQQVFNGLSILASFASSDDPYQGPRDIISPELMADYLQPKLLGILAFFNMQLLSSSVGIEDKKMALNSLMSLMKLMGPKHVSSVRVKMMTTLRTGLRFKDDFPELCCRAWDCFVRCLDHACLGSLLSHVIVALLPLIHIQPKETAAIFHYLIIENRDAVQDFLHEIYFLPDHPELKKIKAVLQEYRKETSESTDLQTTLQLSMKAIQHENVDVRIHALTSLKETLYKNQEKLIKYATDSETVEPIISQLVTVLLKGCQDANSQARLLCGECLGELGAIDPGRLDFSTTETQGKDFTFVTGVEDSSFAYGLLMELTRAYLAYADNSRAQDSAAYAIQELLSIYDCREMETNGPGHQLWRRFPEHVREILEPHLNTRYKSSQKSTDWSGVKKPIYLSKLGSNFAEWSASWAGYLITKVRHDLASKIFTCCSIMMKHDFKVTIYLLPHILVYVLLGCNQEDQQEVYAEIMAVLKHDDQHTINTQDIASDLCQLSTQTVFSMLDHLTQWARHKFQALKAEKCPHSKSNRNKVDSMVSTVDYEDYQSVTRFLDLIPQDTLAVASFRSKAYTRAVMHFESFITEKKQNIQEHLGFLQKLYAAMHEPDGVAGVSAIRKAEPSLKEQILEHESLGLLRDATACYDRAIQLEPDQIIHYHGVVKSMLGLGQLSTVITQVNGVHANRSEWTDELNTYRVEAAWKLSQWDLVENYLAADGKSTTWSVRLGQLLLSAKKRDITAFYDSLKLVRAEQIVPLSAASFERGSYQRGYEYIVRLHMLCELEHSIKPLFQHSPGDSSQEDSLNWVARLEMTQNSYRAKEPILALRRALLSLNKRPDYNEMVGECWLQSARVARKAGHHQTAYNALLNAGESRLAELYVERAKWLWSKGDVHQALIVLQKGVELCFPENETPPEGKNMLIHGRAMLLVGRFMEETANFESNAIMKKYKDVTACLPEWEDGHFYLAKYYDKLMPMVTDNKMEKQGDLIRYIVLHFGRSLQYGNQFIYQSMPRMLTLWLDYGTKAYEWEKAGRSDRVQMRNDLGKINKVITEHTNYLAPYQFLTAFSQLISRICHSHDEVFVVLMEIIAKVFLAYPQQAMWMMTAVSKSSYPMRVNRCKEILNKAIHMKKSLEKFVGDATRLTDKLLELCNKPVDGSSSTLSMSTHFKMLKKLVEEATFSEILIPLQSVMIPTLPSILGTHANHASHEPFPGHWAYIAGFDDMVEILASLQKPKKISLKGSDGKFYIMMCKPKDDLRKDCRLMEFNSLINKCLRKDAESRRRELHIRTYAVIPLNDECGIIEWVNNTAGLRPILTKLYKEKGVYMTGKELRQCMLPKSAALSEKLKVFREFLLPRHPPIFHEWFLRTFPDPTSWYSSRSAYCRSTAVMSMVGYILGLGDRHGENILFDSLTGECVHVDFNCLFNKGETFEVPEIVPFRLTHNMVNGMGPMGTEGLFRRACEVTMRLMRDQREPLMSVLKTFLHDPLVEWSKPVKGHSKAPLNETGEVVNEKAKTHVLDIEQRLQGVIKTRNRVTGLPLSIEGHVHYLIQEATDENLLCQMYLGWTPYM
ATR, sequence (Q8WXE1 whole entry partner): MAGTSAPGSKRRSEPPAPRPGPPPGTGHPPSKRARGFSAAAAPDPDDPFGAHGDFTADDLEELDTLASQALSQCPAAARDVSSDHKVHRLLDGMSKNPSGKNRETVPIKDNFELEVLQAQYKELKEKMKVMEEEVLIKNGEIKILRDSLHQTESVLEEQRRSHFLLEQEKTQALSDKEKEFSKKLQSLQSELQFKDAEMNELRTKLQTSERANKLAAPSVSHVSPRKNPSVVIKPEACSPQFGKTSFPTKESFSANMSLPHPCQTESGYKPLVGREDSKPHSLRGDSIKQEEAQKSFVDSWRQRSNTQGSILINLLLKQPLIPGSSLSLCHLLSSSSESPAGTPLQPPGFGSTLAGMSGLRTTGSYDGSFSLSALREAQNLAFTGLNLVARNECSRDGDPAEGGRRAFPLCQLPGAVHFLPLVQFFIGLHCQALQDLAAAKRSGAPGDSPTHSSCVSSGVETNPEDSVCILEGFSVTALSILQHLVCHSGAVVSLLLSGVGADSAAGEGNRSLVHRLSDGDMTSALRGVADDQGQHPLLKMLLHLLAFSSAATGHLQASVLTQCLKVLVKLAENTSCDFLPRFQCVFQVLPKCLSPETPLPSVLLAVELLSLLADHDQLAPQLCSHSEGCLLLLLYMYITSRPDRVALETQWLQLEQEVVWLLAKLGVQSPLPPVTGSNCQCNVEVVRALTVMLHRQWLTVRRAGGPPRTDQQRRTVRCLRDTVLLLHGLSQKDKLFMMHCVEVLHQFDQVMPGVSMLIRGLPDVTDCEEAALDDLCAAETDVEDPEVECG

Consider `O=c1cc(N2CCOCC2)oc2c1ccc1ccccc12` [NU7026], for which the “activity against ATR” value in [1] was “inactive”. In addition, the “effect of pre-treatment on basal or Dox-induced H2AX phosphorylation” value in data set [2] (Pa-4/HMGA2 cells) is “little or no effect”. For the same molecule, the “effect of pre-treatment on Dox-induced H2AX phosphorylation” value in data set [2] (Pa-4 cells) was “attenuated”; in [4] (HCC1419 cells, 2 μM Dox), “downregulated”. Further, the “selectivity for DNA-PK” value in data set [3] is recorded as “highly selective for DNA-PK”. Besides, in [4] (HS578T cells, with or without 2 μM Dox), the “effect of pre-treatment on H2AX phosphorylation” value is on record as “did not decrease H2AX phosphorylation in either the presence or absence of Dox treatment”. For the same molecule, in data set [5], the “activity against ATM” value was “inactive”.
Consider `CC(=O)O[C@H]1C(=O)[C@@]2(C)[C@H]([C@H](OC(=O)c3ccccc3)[C@]3(O)C[C@H](OC(=O)[C@H](O)[C@@H](NC(=O)c4ccccc4)c4ccccc4)C(C)=C1C3(C)C)[C@]1(OC(C)=O)CO[C@@H]1C[C@@H]2O` [Taxol], for which the “Taxol-induced cell growth inhibition, HeLa versus HeLa/HMGA2” value in [6] is “no substantial difference in the response to Taxol between HeLa and HeLa/HMGA2 cells”.
Take `Cn1c(=O)c2c(ncn2C)n(C)c1=O` [caffeine]: in data set [7] (4 mM caffeine or 1 μM Dox, 48 hours), the “cell cycle distribution / cells in G2/M, single agent” value is given as “decreased the number of cells in G2/M”. The “apoptosis with both caffeine and Dox” value in data set [7] (caffeine with Dox) is “apoptosis levels greater than those observed after treatment with caffeine or Dox alone”. For the same molecule, the “effect on Dox-induced G2/M arrest” value in [8] is listed as “greatly reduced Dox-induced G2/M arrest”.
As for `CCc1c2c(nc3ccc(OC(=O)N4CCC(N5CCCCC5)CC4)cc13)-c1cc3c(c(=O)n1C2)COC(=O)[C@]3(O)CC` [irinotecan], the “difference in decrease of viability between Pa-4/HMGA2 and Pa-4 cells” value in data set [9] (72 hours) is recorded as “little difference observed between the two cell types”. For the same molecule, the “cell viability / growth inhibition” value in [9] (72 hours after treatment) is recorded as “dose-dependent growth inhibition in both cell types”.
In turn, “HA-HMGA2 (HA-tagged wild-type high-mobility group A2 protein expressed from pcDNA3.1/HA-HMGA2 in HeLa cells) (from UniProt P52926 1-109)” yielded a percentage of Ku80/HMGA2 interaction in data set [10] of 100%.
The molecule “HA-HMGA2(Δ66-109) (from UniProt P52926 1-65)” showed a decrease of the interaction with Ku80 against wild-type HMGA2 in data set [11] of over 70%.
The same measure, in the same setting: then “HA-HMGA2(Δ83-109) (from UniProt P52926 1-82)”, with over 50%.

B1: HMGA2(Δ83-109): truncated HMGA2 carrying deletion of the C-terminus (protein, UniProt P52926 1-82, looked up, fragment)
chain: MSARGEGAGQPSTSAQGQPAAPAPQKRGRGRPRKQQQEPTGEPSPKRPRGRPKGSKNKSPSKAAQKKAEATGEKRPRGRPRK
modifications: HA tag
notes: truncated HMGA2 carrying deletion of the C-terminus
For B1, the “sensitivity of transfected HeLa cells to Dox” value (“sensitivity” for short) in data set [12] is reported as “relatively greater resistance to Dox-treatment”.

B2: HMGA2(4P/A): HMGA2 mutant with four Pro→Ala mutations at amino acid positions 48, 52, 76, and 80 (protein)
chain: MSARGEGAGQPSTSAQGQPAAPAPQKRGRGRPRKQQQEPTGEPSPKRARGRAKGSKNKSPSKAAQKKAEATGEKRARGRARKWPQQVVQKKPAQEETEETSSQESAEED
modifications: left off: small tags and cut ends
Take B2: the “ability to interact with Ku80” value in [13] is “almost completely abrogated the binding of HMGA2 to Ku80”. Moreover, in data set [12], the “sensitivity” value is given as “relatively greater resistance to Dox-treatment”.

B3: HMGA2(2K/R): SUMOylation-defective HMGA2 mutant with Lys→Arg point mutations at residues 66 and 67 (protein, UniProt P52926 2-109, looked up, variant K66R K67R)
High mobility group protein …: SARGEGAGQPSTSAQGQPAAPAPQKRGRGRPRKQQQEPTGEPSPKRPRGRPKGSKNKSPSKAAQRRAEATGEKRPRGRPRKWPQQVVQKKPAQEETEETSSQESAEED
On to B3, for which, in data set [14], the “effect on cytotoxicity elicited by Dox” value is given as “partially reversed the cytotoxicity” and the “effect on cytotoxicity elicited by cisplatin” value is “partially reversed the cytotoxicity”.

B4: HMGA2(Δ1-24): truncated HMGA2 carrying deletion of the N-terminus (protein, UniProt P52926 25-109, looked up, fragment)
chain: QKRGRGRPRKQQQEPTGEPSPKRPRGRPKGSKNKSPSKAAQKKAEATGEKRPRGRPRKWPQQVVQKKPAQEETEETSSQESAEED
modifications: HA tag
notes: truncated HMGA2 carrying deletion of the N-terminus
For the molecule B4, the “ability to interact with Ku80” value in data set [13] is “retained the full ability to interact with Ku80”. Further, the “sensitivity” value in [12] is given as “enhanced the sensitivity of HeLa cells to Dox”.
